The values below come from patent US8148534B2, “Inhibitors of 11-beta-hydroxysteroid dehydrogenase 1” (Eli Lilly and Company, priority 2006, dated 2012).

In assay [1] the target is T1, 11β-HSD1 in primary human aortic smooth muscle cells (AoSMC) (Homo sapiens, UniProt P28845).
T1 construct: containing 12 ng/mL hTNFα to induce expression of 11β-HSD1; endogenous in cells; host or cells: primary human aortic smooth muscle cells (AoSMC), induced with hTNFα
The assay can be described thus: Human Aortic Smooth Muscle Cell Assay (cortisone to cortisol conversion). The assay is classed as cell-based. The note with it: hTNFα induced, cortisol by time resolved immunoassay. Here is the method:
Human Aortic Smooth Muscle Cell Assay
Primary human aortic smooth muscle cells (AoSMC) are cultured in 5% FBS growth medium to a passage number of 6, then pelleted by centrifugation and resuspended at a density of 9×10^4 cells/mL in 0.5% FBS assay medium containing 12 ng/mL hTNFα to induce expression of 11β-HSD1. Cells are seeded into 96-well tissue culture assay plates at 100 μL/well (9×10^3 cells/well) and incubated for 48 hours at 37° C., 5% CO2. Following induction, cells are incubated for 4 hours at 37° C., 5% CO2 in assay medium containing test compounds then treated with 10 μL/well of 10 μM cortisone solubilized in assay medium, and incubated for 16 hours at 37° C., 5% CO2. Medium from each well is transferred to a plate for subsequent analysis of cortisol using a competitive fluorescence resonance time resolved immunoassay. […] Higher levels of free cortisol result in diminishing energy transfer from the Europium-IgG to the APC-cortisol complex resulting in less APC fluorescence. Fluorescent intensities for Europium and APC are measured using a LJL Analyst AD. Europium and APC […] is measured using 360 nm excitation and 615 nm and 650 nm emission filters respectively. […] Fluorescent intensities measured for APC are modified by dividing by the Eu fluorescence (APC/Eu). […]

Assay [2] relates to cortisone to cortisol conversion in male C57BL/6 mice. Briefly: Acute In Vivo Cortisone Conversion Assay. The conditions noted are these: oral dose of 10 mg/kg, cortisone challenge 30 mg/kg s.c. after 16 hours, serum cortisol. Here is the method: Acute In Vivo Cortisone Conversion Assay
In general, compounds are dosed orally into mice, the mice are challenged with a subcutaneous injection of cortisone at a set timepoint after compound injection, and the blood of each animal is collected some time later. Separated serum is then isolated and analyzed for levels of cortisone and cortisol by LC-MS/MS, followed by calculation of mean cortisol and percent inhibition of each dosing group. Specifically, male C57BL/6 mice are obtained from Harlan Sprague Dawley at average weight of 25 grams. Exact weights are taken upon arrival and the mice randomized into groups of similar weights. Compounds are prepared in 1% w-w HEC, 0.25% w-w polysorbate 80, 0.05% w-w Dow Corning antifoam #1510-US at various doses based on assumed average weight of 25 grams. Compounds are dosed orally, 200 μl per animal, followed by a subcutaneous dose, 200 μl per animal, of 30 mg/kg cortisone at 1 to 24 hours post compound dose. At 10 minutes post cortisone challenge, each animal is euthanized for 1 minute in a CO2 chamber, followed by blood collection via cardiac puncture into serum separator tubes. Once fully clotted, tubes are spun at 2500×g, 4° C. for 15 minutes, the serum transferred to wells of 96-well plates (Corning Inc, Costar #4410, cluster tubes, 1.2 ml, polypropylene), and the plates are frozen at −20° C. until analysis by LC-MS/MS. […]

Assay [3] deals with recombinant human 11β-HSD type 1 enzyme (Homo sapiens, UniProt P28845). The assay can be described thus: 11-β-HSD Type 1 Enzyme Assay (NADPH fluorescence). The assay is classed as biochemical. The note with it: three hour incubation at room temperature, read-out: Human 11-βHSD1 IC50. Here is the method: 11-β-HSD Type 1 Enzyme Assay
Sequence of recombinant human 11β-HSD type 1 enzyme (P28845 whole entry): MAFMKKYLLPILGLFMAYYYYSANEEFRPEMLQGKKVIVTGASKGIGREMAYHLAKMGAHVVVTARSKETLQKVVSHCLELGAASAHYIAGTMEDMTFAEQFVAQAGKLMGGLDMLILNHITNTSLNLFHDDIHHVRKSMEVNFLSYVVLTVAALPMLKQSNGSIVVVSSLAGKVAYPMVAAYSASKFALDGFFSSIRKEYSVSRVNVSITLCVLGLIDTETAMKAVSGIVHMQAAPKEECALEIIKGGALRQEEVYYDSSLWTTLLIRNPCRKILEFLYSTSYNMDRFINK
Human 11-β-HSD type 1 activity is measured by assaying NADPH production by fluorescence assay. Solid compounds are dissolved in DMSO to a concentration of 10 mM. Twenty microliters of each are then transferred to a column of a 96-well polypropylene Nunc plate where they are further diluted 50-fold followed by subsequent two-fold titration, ten times across the plate with additional DMSO using a Tecan Genesis 200 automated system. Plates are then transferred to a Tecan Freedom 200 system with an attached Tecan Temo 96-well head and an Ultra 384 plate reader. Reagents are supplied in 96-well polypropylene Nunc plates and are dispensed individually into black 96-well Molecular Devices High Efficiency assay plates (40 μL/well capacity) in the following fashion: 9 μL/well of substrate (2.22 mM NADP, 55.5 μM Cortisol, 10 mM Tris, 0.25% Prionex, 0.1% Triton X100), 3 μL/well of water to compound wells or 3 μL to control and standard wells, 6 μL/well recombinant human 11β-HSD type 1 enzyme, 2 μL/well of compound dilutions. […] Plates are then shaken once more for 15 seconds then placed into an Ultra 384 microplate reader (355EX/460EM) for detection of NADPH fluorescence.

pIC50: −log10 of the molar value.

T1 sequence (P28845 whole entry): as above

`O=C(c1ccc(-c2cc(Cl)c(C[C@@H]3CCN(N4CCCCC4)C3=O)c(Cl)c2)cc1)N1CCC(C(F)(F)F)CC1` [Example 1, (R)-3-[3,5-Dichloro-4′-(4-trifluoromethyl-piperidine-1-carbonyl)-biphenyl-4-ylmethyl]-1-piperidin-1-yl-pyrrolidin-2-one] showed a pIC50 in assay [1] of 7.77. Also, the “% Inhibition after 16 hours (dose of 10 (mg/kg))” value in assay [2] is 78%.

On to `O=C(c1ccc(-c2cc(Cl)c(C[C@@H]3CCN(N4CCCCC4)C3=O)c(Cl)c2)cc1)N1CCC(O)CC1` [Example 2, (R)-3-[3,5-Dichloro-4′-(4-hydroxy-piperidine-1-carbonyl)-biphenyl-4-ylmethyl]-1-piperidin-1-yl-pyrrolidin-2-one], for which the results for the pIC50 in assay [3] and in assay [1] were 6.45 and 7.98, respectively.

For orientation: pIC50 means the IC50 on a negative log10 scale, so that one unit is a factor of ten.
